In ChEMBL document CHEMBL3875223, “Activation of lysine-specific demethylase 1 inhibitor peptide by redox-controlled cleavage of a traceless linker” (Bioorg Med Chem, 2017):

Biological target: Lysine-specific histone demethylase 1A (Homo sapiens, UniProt O60341)
Experiment: Inhibition of human LSD1 assessed as reduction in H2O2 production using H3K4me2 (1 to 20 residues) peptide as substrate preincubated for 10 mins followed by substrate addition measured after 30 mins in presence of DTT by peroxidase coupled enzyme assay

- Ki: 190 µM
Structure (SMILES): CC(C)C[C@H](NC(=O)[C@H](Cc1ccccc1)NC(=O)[C@H](CO)NC(=O)[C@H](CCCNC(=N)N)NC(=O)[C@@H]1CCCN1C(=O)CO)C(=O)N[C@H](C(=O)N[C@@H](CCCNC(=N)N)C(=O)N[C@@H](CCCCN)C(=O)N1CCC[C@H]1C(=O)N[C@@H](CCCCNC(=O)CO)C(N)=O)C(C)C
